Laboratory results published in ChEMBL document CHEMBL1149841, “Synaptosides A and A1, triterpene glycosides from the sea cucumber Synapta maculata containing 3-O-methylglucuronic acid and their cytotoxic activity against tumor cells” (J Nat Prod, 2008).
The source made the active and inactive calls. The calls are words filed in the database; no cut-off is given here.

Assays:
HeLa [1] = assay: Cytotoxicity against human HeLa cells after 12 hrs at 14.1 ug/ml by MTS reduction assay; format: functional, cell-based
HeLa [2] = assay: Cytotoxicity against human HeLa cells after 12 hrs by MTS reduction assay; format: functional, cell-based

SMILES: CO[C@@H]1[C@@H](O)[C@H](O[C@@H]2[C@@H](O)[C@H](O[C@H]3[C@H](O)[C@@H](O)[C@H](O[C@H]4[C@H](O[C@H]5CC[C@]6(C)C7=C(C(=O)C[C@H]6C5(C)C)[C@]5(C)CC[C@H]6[C@]5(CC7)C(=O)O[C@@]6(C)CC(=O)CC(C)C)OC[C@@H](O[C@@H]5O[C@H](COS(=O)(=O)O)[C@@H](O)[C@H](O)[C@H]5O)[C@@H]4O)O[C@@H]3C)O[C@H](CO)[C@H]2O)O[C@H](C(=O)O)[C@H]1O
- Activity (HeLa [1]): inactive

SMILES: CO[C@@H]1[C@@H](O)[C@H](O[C@@H]2[C@@H](O)[C@H](O[C@H]3[C@H](O)[C@@H](O)[C@H](O[C@H]4[C@H](O[C@H]5CC[C@]6(C)[C@@H]7CC[C@]89C(=O)O[C@@](C)(CC(=O)CC(C)C)[C@H]8CC[C@@]9(C)C7=CC[C@H]6C5(C)C)OC[C@@H](O[C@@H]5O[C@H](COS(=O)(=O)[O-])[C@@H](O)[C@H](O)[C@H]5O)[C@@H]4O)O[C@@H]3C)O[C@H](CO)[C@H]2O)O[C@H](C(=O)[O-])[C@H]1O.[Na+].[Na+] [SYNAPTOSIDE A]
- IC50 (HeLa [2]): 8.6 µg/mL
